From PMC9081833, “Discovery of acylphloroglucinol-based meroterpenoid enantiomers as KSHV inhibitors from Hypericum japonicum” (RSC Advances, 2018) come the findings set out here.

Molecules are shown by their SMILES. Read-outs that look alike come from different tables or passages of the source. Where only a bound is given, the exact number is not on record here.

The subject of series [1] is KSHV lytic replication. The series can be described thus: Field-based 3D QSAR model of anti-KSHV activity. Set-up: species or system Kaposi's sarcoma associated herpesvirus (KSHV); unit not given here. The note with it: log IC50 of the anti-KSHV IC50. An excerpt:
Qualitative analysis was followed by quantitative SAR (QSAR) modelling utilizing the Field-Based QSAR Panel implemented in Schrödinger Suite[14] to set up CoMFA/CoMSIA models from these enantiomers. These enantiomers first superimposed using the flexible shape-based alignment method (Fig. 6). […] Experimental activities of additional analogues would likely provide a better model. Moreover, correlation between the observed activities and the predicted activities was plotted in Fig. 7.
QSAR studies were conducted with Schrödinger Suite 2017-1.
A data set (Table 3) was randomly assigned into training and test sets with a ratio of approximately 4/1, and their activities (IC50) were converted to the logarithm (log IC50). The minimized conformations of these enantiomers were generated utilizing LigPrep and aligned according to the flexible shape-based alignment method. The force field was used and the maximum PLS factors were set as 1/5 of the total number of the training set in order to avoid over-fitting. The parameters that were not mentioned were left as defaults.

For series [2], the system named is KSHV lytic replication. The note with it: for Selective index (CC50/IC50): human; for IC50: supernatant of iSLK.219 cells treated 48 h used to infect Vero cells 48 h, GFP readout.
For another series, the system named is Human iSLK.219 cells. Conditions: 50% cytotoxic concentration, 48 h, with Dox and NaB.
A further series can be described thus: in vitro. Conditions: human, CC50, 50% cytotoxic concentration, iSLK.219 cells, 48 h, with Dox and NaB.
Series [3] relates to KSHV lytic replication. The series can be described thus: microbe, parasite or virus in culture. The note with it: Human gammaherpesvirus 8, Vero, 48 h, supernatant of iSLK.219 cells treated 48 h used to infect Vero cells 48 h, GFP readout.
The test system of series [4] is KSHV lytic replication. The series can be described thus: in vitro. Conditions: human, Selective index (CC50/IC50).

For orientation: IC50 means the concentration that inhibits the measured activity by half. One may read the CC50 as the concentration at which the toxic effect on the cells reaches its halfway point. As to `C=C(C)C1CCC2(C)Oc3c(c(O)cc(O)c3C(=O)C(C)C)CC12` (single isomer, unassigned; (-)) [Compound 1b, (−)-japonicol E], the Observed activity with KSHV lytic replication [1] is given as 1.388. In addition, in the series on KSHV lytic replication [2], the “Selective index (CC50/IC50)” value was found to be 7.78 and the IC50 came to 24.5 µM. This compound registered a CC50 with Human iSLK.219 cells of 190 µM.

Turning to `CC(C)C(=O)c1c(O)cc(O)c2c1OC1(C)CCC(C(C)(C)O)C2C1O` (stereo not shown) [Compound 5b], the Observed activity in the series on KSHV lytic replication [1] is on record as 2.149. For the same compound, in the series with KSHV lytic replication [2], the “Selective index (CC50/IC50)” value is on record as greater than 3.55 and the IC50 is 141 µM. For the same compound, the CC50 with Human iSLK.219 cells was greater than 500 µM.

The compound `CC(C)C(=O)c1c(O)cc(O)c2c1OC(C)(C)C1CCC(C)(O)C1C2` (stereo not shown) [Compound 7a] returned an Observed activity in the series with KSHV lytic replication [1] of 0.942. The same compound returned an IC50 in the series on KSHV lytic replication [2] of 17.7 µM. The compound also registered a CC50 in the series “in vitro” of 221 µM.

In the case of `CC(C)C(=O)c1c(O)cc(O)c2c1OC(C)(C)C1CCC(C)(O)C1C2` (stereo not shown) [Compound 7b], the Observed activity in the series with KSHV lytic replication [1] was 1.464. This compound gave an IC50 in the series on KSHV lytic replication [2] of 39.8 µM. Also, the CC50 in the series on Human iSLK.219 cells is greater than 300 µM.

Regarding `CC(C)=CCCC1(C)Oc2c(c(O)cc(O)c2C(=O)C(C)C)CC1O` (single isomer, unassigned; (+)) [Compound 2a, (+)-japonicol F], the Observed activity in the series with KSHV lytic replication [1] is given as 1.447. The CC50 in “in vitro” came to 126 µM. In the series with KSHV lytic replication [3], this compound gave an IC50 of 28 µM. Besides, in the series on KSHV lytic replication [4], the selectivity ratio came to 4.5.

For the compound `CC(C)=CCCC(C)(O)C1Cc2c(O)cc(O)c(C(=O)C(C)C)c2O1` (single isomer, unassigned; (-)) [Compound 3b, (−)-japonicol G], the Observed activity with KSHV lytic replication [1] amounted to 0.826. Moreover, in the series with KSHV lytic replication [2], the “Selective index (CC50/IC50)” value turned out to be 7.48 and the IC50 is 6.7 µM. The compound further gave a CC50 in the series with Human iSLK.219 cells of 50.1 µM.

In turn, `C=C(C)C1CCC2(C)Oc3c(c(O)cc(O)c3C(=O)C(C)C)CC12` (single isomer, unassigned; (+)) [Compound 1a, (+)-japonicol E] came in with an Observed activity with KSHV lytic replication [1] of 0.919. Also, in the series on KSHV lytic replication [2], the “Selective index (CC50/IC50)” value was found to be 23.49 and half-maximal inhibition (IC50) was put at 8.3 µM. This compound also showed a CC50 in the series “in vitro” of 195 µM.

The compound `CC(C)C(=O)c1c(O)cc(O)c2c1OC1(C)CCC(C(C)(C)O)OC1C2` (stereo not shown) [Compound 6b] came in with an Observed activity in the series with KSHV lytic replication [1] of 1.600. For the same compound, the CC50 in the series on Human iSLK.219 cells was determined as 174 µM.

`CC(C)=CCCC(C)(O)C1Cc2c(O)cc(O)c(C(=O)C(C)C)c2O1` (single isomer, unassigned; (+)) [Compound 3a, (+)-japonicol G]: in the series on KSHV lytic replication [1], the Observed activity worked out at 1.337. Moreover, in the series with KSHV lytic replication [2], the “Selective index (CC50/IC50)” value came to 3.66 and the IC50 was 21.7 µM. In “in vitro”, the CC50 was 79.5 µM.

As for `CC(C)=CCCC(C)(O)C1Cc2c(O)cc(O)c(C(=O)c3ccccc3)c2O1` (single isomer, unassigned; (+)) [Compound 4a, (+)-japonicol H], the Observed activity in the series on KSHV lytic replication [1] turned out to be 0.690. Further, in the series with KSHV lytic replication [2], the “Selective index (CC50/IC50)” value was 25.70 and the IC50 turned out to be 4.9 µM. Further, half-maximal cytotoxicity in the series “in vitro” (CC50) was put at 126 µM.

With `CC(C)=CCCC1(C)Oc2c(c(O)cc(O)c2C(=O)C(C)C)CC1O` (single isomer, unassigned; (-)) [Compound 2b, (−)-japonicol F], the Observed activity in the series with KSHV lytic replication [1] is given as 1.436. Moreover, in the series on KSHV lytic replication [2], the “Selective index (CC50/IC50)” value stood at 5.50 and the IC50 was 27.3 µM. Besides, the CC50 with Human iSLK.219 cells was determined as 150 µM.

As to `CC(C)C(=O)c1c(O)cc(O)c(CC2C(C(C)(C)O)CCC2(C)O)c1O` (stereo not shown) [Compound 8b], the Observed activity in the series with KSHV lytic replication [1] was found to be 2.200. Also, in the series on KSHV lytic replication [2], the “Selective index (CC50/IC50)” value is on record as greater than 1.89 and the IC50 was 158 µM. In the series with Human iSLK.219 cells, this compound came in with a CC50 greater than 300 µM.

The compound `CC(C)C(=O)c1c(O)cc(O)c2c1OC1(C)CCC(C(C)(C)O)C2C1O` (stereo not shown) [Compound 5a] registered an Observed activity with KSHV lytic replication [1] of 2.307. The compound further displayed a CC50 in the series “in vitro” greater than 500 µM. Further, half-maximal inhibition with KSHV lytic replication [3] (IC50) required 203 µM. Moreover, the selectivity ratio with KSHV lytic replication [4] is greater than 2.46.

Turning to `CC(C)C(=O)c1c(O)cc(O)c(CC2C(C(C)(C)O)CCC2(C)O)c1O` (stereo not shown) [Compound 8a], the Observed activity in the series on KSHV lytic replication [1] was 1.602. Besides, in the series on KSHV lytic replication [2], the “Selective index (CC50/IC50)” value is greater than 7.50 and the IC50 amounted to 40 µM. Besides, in “in vitro”, the CC50 is greater than 300 µM.

With `CC(C)C(=O)c1c(O)cc(O)c2c1OC1(C)CCC(C(C)(C)O)OC1C2` (stereo not shown) [Compound 6a], the Observed activity in the series on KSHV lytic replication [1] turned out to be 1.247. This compound showed a CC50 in “in vitro” of 141 µM.

In “in vitro”, `Nc1ccn(C[C@@H](CO)OCP(=O)(O)O)c(=O)n1` [Cidofovir, reference compound] returned a CC50 greater than 1 µM. Also, half-maximal inhibition in the series on KSHV lytic replication [3] (IC50) was put at 0.0081 µM. Moreover, the selectivity ratio in the series on KSHV lytic replication [4] is greater than 123.

In the series with KSHV lytic replication [1], `CC(C)=CCCC(C)(O)C1Cc2c(O)cc(O)c(C(=O)c3ccccc3)c2O1` (single isomer, unassigned; (-)) [Compound 4b, (−)-japonicol H] showed an Observed activity of 1.469. Further, in the series with KSHV lytic replication [2], the “Selective index (CC50/IC50)” value was greater than 6.79 and inhibition was half-maximal at 29.5 µM (IC50). Moreover, the CC50 in the series with Human iSLK.219 cells was greater than 200 µM.
